From US9980943B2, “Methods of treating muscular dystrophy” (BOARD OF REGENTS OF THE NEVADA SYSTEM OF HIGHER EDUCATION, …, priority 2013, dated 2018)

Experiments:
Assay type in all cases: cell-based, mouse
[1] = test system: α7 integrin (LacZ reporter in α7βgal+/− myoblasts); assay: Myoblast α7+/LacZ integrin FDG assay (Burkin assay in myoblasts, 96-well); details: for Burkin Assay in Myoblasts, signal relative to DMSO: α7+/LacZ myoblasts; for Burkin Assay in Myoblasts, signal relative to DMSO / Burkin Assay in Myoblasts, value relative to DMSO: 96-well; for Burkin Assay in Myoblasts, value relative to DMSO: SU9516 analogs, N=3-6
[2] = test system: α7 integrin (LacZ reporter in α7+/LacZ myotubes); assay: Myotube α7 integrin FDG assay (Burkin assay in myotubes, 96-well); details: for Burkin Assay in Myotubes, value relative to DMSO: SU9516 analogs, 96-well, N=3-6
[3] = test system: β-galactosidase in CMV-LacZ C2C12 myoblasts; assay: CMV-LacZ secondary screen in C2C12 myoblasts (β-Gal stabilizing assay); details: for CMV-LACZ in Myoblasts (β-galactosidase activity relative to DMSO): CMV-LacZ C2C12 myoblasts; for CMV-LACZ in Myoblasts, value relative to DMSO: SU9516 analogs, C2C12 CMV-LacZ, N=2
Procedure, shortened: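 Dose-response runs at 0.5–40 μM (0.5, 1, 5, 10, 20, 40 μM; N=2 per point) used a clonal C2C12 line carrying CMV-LacZ. Cells were assayed as myoblasts or as differentiated myotubes, and β-galactosidase levels were read with the FDG fluorogenic substrate.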

[4] = test system: β-galactosidase in CMV-LacZ C2C12 myotubes; assay: CMV-LacZ secondary screen in C2C12 myotubes (β-Gal stabilizing assay); details: for CMV-LACZ in Myotubes, signal relative to DMSO: C2C12 CMV-LacZ myotubes, fold relative to DMSO; for CMV-LACZ in Myotubes, value relative to DMSO: SU9516 analogs, C2C12 CMV-LacZ, N=2
Procedure, shortened: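 β-Gal level was the read-out, measured in a clonal C2C12 line expressing LacZ from a CMV promoter. Dose-response curves used six concentrations, 0.5 μM up to 40 μM, with duplicate points.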

[5] = Mus musculus, Myoblast, 48 h, read-out: Burkin Assay in Myoblasts, value relative to DMSO

With `Cc1cccc(Sc2nc(-c3ccccc3)ccc2C#N)c1` [MLS000325736-01] the “Burkin Assay in Myoblasts, signal relative to DMSO” value ([1]; 0.5 uM) was 0.7757, the “Burkin Assay in Myoblasts, signal relative to DMSO” value ([1]; 1 uM) was 0.7875 and the “Burkin Assay in Myoblasts, signal relative to DMSO” value ([1]; 5 uM) was 1.423. The “Burkin Assay in Myoblasts, signal relative to DMSO” value ([1]; 10 uM) was 1.17, the “Burkin Assay in Myoblasts, signal relative to DMSO” value ([1]; 20 uM) was 0.912 and the “Burkin Assay in Myoblasts, signal relative to DMSO” value ([1]; 40 uM) was 0.8854. The “Burkin Assay in Myotubes, α7 integrin LacZ reporter signal relative to DMSO” value ([2]; 0.5 uM) was 0.9135, the “Burkin Assay in Myotubes, α7 integrin LacZ reporter signal relative to DMSO” value ([2]; 1 uM) was 0.8017 and the “Burkin Assay in Myotubes, α7 integrin LacZ reporter signal relative to DMSO” value ([2]; 5 uM) was 1.027. The “Burkin Assay in Myotubes, α7 integrin LacZ reporter signal relative to DMSO” value ([2]; 10 uM) was 1.168, the “Burkin Assay in Myotubes, α7 integrin LacZ reporter signal relative to DMSO” value ([2]; 20 uM) was 0.6582 and the “Burkin Assay in Myotubes, α7 integrin LacZ reporter signal relative to DMSO” value ([2]; 40 uM) was 0.6972. For the same molecule, the “CMV-LACZ in Myoblasts (β-galactosidase activity relative to DMSO)” value ([3]; 0.5 uM) was 0.7862, the “CMV-LACZ in Myoblasts (β-galactosidase activity relative to DMSO)” value ([3]; 1 uM) was 0.9135 and the “CMV-LACZ in Myoblasts (β-galactosidase activity relative to DMSO)” value ([3]; 5 uM) was 0.9758. For the same molecule, the “CMV-LACZ in Myoblasts (β-galactosidase activity relative to DMSO)” value ([3]; 10 uM) was 1.0696, the “CMV-LACZ in Myoblasts (β-galactosidase activity relative to DMSO)” value ([3]; 20 uM) was 1.0111 and the “CMV-LACZ in Myoblasts (β-galactosidase activity relative to DMSO)” value ([3]; 40 uM) was 1.0537. The “CMV-LACZ in Myotubes, signal relative to DMSO” value ([4]; 0.5 uM) was 0.9263, the “CMV-LACZ in Myotubes, signal relative to DMSO” value ([4]; 1 uM) was 0.8968 and the “CMV-LACZ in Myotubes, signal relative to DMSO” value ([4]; 5 uM) was 0.9630. The “CMV-LACZ in Myotubes, signal relative to DMSO” value ([4]; 10 uM) was 0.9324, the “CMV-LACZ in Myotubes, signal relative to DMSO” value ([4]; 20 uM) was 0.8244 and the “CMV-LACZ in Myotubes, signal relative to DMSO” value ([4]; 40 uM) was 0.9889.

In the case of `O=C1Nc2ccccc2/C1=C/c1c[nH]cn1` [MLS000327715-01], the fold induction at 0.5 µM [1, 5] is reported as 1.38, the fold induction at 1 µM [1, 5] is reported as 1.09 and the fold induction at 5 µM [1, 5] is reported as 1.15. For the same molecule, the fold induction at 10 µM [1, 5] was 1.03, the fold induction at 20 µM [1, 5] was 0.902 and the fold induction at 40 µM [1, 5] was 0.578. The “Burkin Assay in Myotubes, value relative to DMSO” value ([2]; 0.5 uM) was 0.8838, the “Burkin Assay in Myotubes, value relative to DMSO” value ([2]; 1 uM) was 1.025 and the “Burkin Assay in Myotubes, value relative to DMSO” value ([2]; 5 uM) was 1.302. For the same molecule, the “Burkin Assay in Myotubes, value relative to DMSO” value ([2]; 10 uM) was 1.115, the “Burkin Assay in Myotubes, value relative to DMSO” value ([2]; 20 uM) was 1.192 and the “Burkin Assay in Myotubes, value relative to DMSO” value ([2]; 40 uM) was 1.119. For the same molecule, the “CMV-LACZ in Myoblasts, value relative to DMSO” value ([3]; 0.5 uM) was 1.2294, the “CMV-LACZ in Myoblasts, value relative to DMSO” value ([3]; 1 uM) was 1.1731 and the “CMV-LACZ in Myoblasts, value relative to DMSO” value ([3]; 5 uM) was 0.9664. The “CMV-LACZ in Myoblasts, value relative to DMSO” value ([3]; 10 uM) was 1.0060, the “CMV-LACZ in Myoblasts, value relative to DMSO” value ([3]; 20 uM) was 1.3181 and the “CMV-LACZ in Myoblasts, value relative to DMSO” value ([3]; 40 uM) was 1.0648. The “CMV-LACZ in Myotubes, value relative to DMSO” value ([4]; 0.5 uM) was 1.1762, the “CMV-LACZ in Myotubes, value relative to DMSO” value ([4]; 1 uM) was 1.0562 and the “CMV-LACZ in Myotubes, value relative to DMSO” value ([4]; 5 uM) was 1.1289. The “CMV-LACZ in Myotubes, value relative to DMSO” value ([4]; 10 uM) was 0.9983, the “CMV-LACZ in Myotubes, value relative to DMSO” value ([4]; 20 uM) was 1.2200 and the “CMV-LACZ in Myotubes, value relative to DMSO” value ([4]; 40 uM) was 1.4871.

In the case of `Cc1ccc(/C=C2\C(=O)Nc3ccccc32)o1` [MLS000391588-01], the “Burkin Assay in Myoblasts, value relative to DMSO” value ([1]; 0.5 uM) is reported as 1.07, the “Burkin Assay in Myoblasts, value relative to DMSO” value ([1]; 1 uM) is reported as 1.015 and the “Burkin Assay in Myoblasts, value relative to DMSO” value ([1]; 5 uM) is reported as 0.9119. The “Burkin Assay in Myoblasts, value relative to DMSO” value ([1]; 10 uM) was 0.8176, the “Burkin Assay in Myoblasts, value relative to DMSO” value ([1]; 20 uM) was 0.7804 and the “Burkin Assay in Myoblasts, value relative to DMSO” value ([1]; 40 uM) was 0.3005. The “Burkin Assay in Myotubes, value relative to DMSO” value ([2]; 0.5 uM) was 1.073, the “Burkin Assay in Myotubes, value relative to DMSO” value ([2]; 1 uM) was 0.9563 and the “Burkin Assay in Myotubes, value relative to DMSO” value ([2]; 5 uM) was 0.8994. The “Burkin Assay in Myotubes, value relative to DMSO” value ([2]; 10 uM) was 0.9356, the “Burkin Assay in Myotubes, value relative to DMSO” value ([2]; 20 uM) was 0.7631 and the “Burkin Assay in Myotubes, value relative to DMSO” value ([2]; 40 uM) was 0.664. For the same molecule, the “CMV-LACZ in Myoblasts, value relative to DMSO” value ([3]; 0.5 uM) was 1.0009, the “CMV-LACZ in Myoblasts, value relative to DMSO” value ([3]; 1 uM) was 0.7411 and the “CMV-LACZ in Myoblasts, value relative to DMSO” value ([3]; 5 uM) was 0.9885. For the same molecule, the “CMV-LACZ in Myoblasts, value relative to DMSO” value ([3]; 10 uM) was 1.0968, the “CMV-LACZ in Myoblasts, value relative to DMSO” value ([3]; 20 uM) was 1.4307 and the “CMV-LACZ in Myoblasts, value relative to DMSO” value ([3]; 40 uM) was 1.1119. For the same molecule, the “CMV-LACZ in Myotubes, value relative to DMSO” value ([4]; 0.5 uM) was 0.8400, the “CMV-LACZ in Myotubes, value relative to DMSO” value ([4]; 1 uM) was 1.0010 and the “CMV-LACZ in Myotubes, value relative to DMSO” value ([4]; 5 uM) was 1.0019. For the same molecule, the “CMV-LACZ in Myotubes, value relative to DMSO” value ([4]; 10 uM) was 0.9740, the “CMV-LACZ in Myotubes, value relative to DMSO” value ([4]; 20 uM) was 0.9212 and the “CMV-LACZ in Myotubes, value relative to DMSO” value ([4]; 40 uM) was 0.9094.
